What was measured:
Test in all cases: relative viability (nuclei count vs DMSO), 5 days (fraction); higher = more cells survive
QS11 + Pictilisib = compound: C1CC2=C(C1)C=C(C=C2)OC3=NC(=C4C(=N3)N(C=N4)CC5=CC=C(C=C5)C6=CC=CC=C6)N[C@@H](CC7=CC=CC=C7)CO [QS11] + CS(=O)(=O)N1CCN(Cc2cc3nc(-c4cccc5[nH]ncc45)nc(N4CCOCC4)c3s2)CC1 [Pictilisib] (partner 1 µM)
How it was run: (§1)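 Cells from lung cancer lines were seeded into 1536-well plates and, one day later, dosed by pin tool. Treatments were either a single drug or a fixed dose of an anchor drug with five library-drug doses (not always all listed) in √10 steps. After 5 days, nuclei were stained in a one-step fixation (final 0.05% Triton X-100, 1% formaldehyde, 1 ug/ml Hoechst) and counted on 4× images, and relative viability is the treated-to-vehicle nuclei ratio, as the median of duplicate plates.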

Darinaparsin + AZD7762 = compound: C[As](C)SC[C@H](NC(=O)CC[C@H](N)C(=O)O)C(=O)NCC(=O)O [Darinaparsin] + NC(=O)Nc1cc(-c2cccc(F)c2)sc1C(=O)N[C@H]1CCCNC1 [AZD7762] (partner 0.2 µM)
How it was run: as §1

[1] = compound: C[As](C)SC[C@H](NC(=O)CC[C@H](N)C(=O)O)C(=O)NCC(=O)O [Darinaparsin] + CC(=O)Nc1cccc(-n2c(=O)n(C3CC3)c(=O)c3c(Nc4ccc(I)cc4F)n(C)c(=O)c(C)c32)c1 [Trametinib] (partner 0.02 µM)
How it was run: as §1

[2] = compound: C[As](C)SC[C@H](NC(=O)CC[C@H](N)C(=O)O)C(=O)NCC(=O)O [Darinaparsin] + CC(=O)c1c(C)c2cnc(Nc3ccc(N4CCNCC4)cn3)nc2n(C2CCCC2)c1=O [Palbociclib] (partner 0.5 µM)
How it was run: as §1

Cell Line	relative viability (QS11 + Pictilisib; first compound 0.08 µM)	relative viability (QS11 + Pictilisib; first compound 0.253 µM)	relative viability (QS11 + Pictilisib; first compound 0.8 µM)	relative viability (QS11 + Pictilisib; first compound 2.53 µM)	relative viability (QS11 + Pictilisib; first compound 8 µM)	relative viability (Darinaparsin + AZD7762; first compound 0.08 µM)	relative viability (Darinaparsin + AZD7762; first compound 0.8 µM)	relative viability (Darinaparsin + AZD7762; first compound 2.53 µM)	relative viability (Darinaparsin + AZD7762; first compound 8 µM)	relative viability ([1]; first compound 0.08 µM)	relative viability ([1]; first compound 0.8 µM)	relative viability ([1]; first compound 2.53 µM)	relative viability ([1]; first compound 8 µM)	relative viability ([2]; first compound 0.08 µM)	relative viability ([2]; first compound 0.8 µM)	relative viability ([2]; first compound 2.53 µM)	relative viability ([2]; first compound 8 µM)
NCI-H322M	0.55	0.483	0.492	0.545	0.49	0.585	0.42	0.488	0.518	0.525	0.505	0.495	0.511	0.478	0.456	0.487	0.442
NCI-H358	0.338	0.315	0.387	0.564	0.553	0.478	0.581	0.591	0.522	0.112	0.129	0.134	0.145	0.141	0.128	0.127	0.139
NCI-H441	0.472	0.529	0.501	0.5	0.608	1.2	1.08	0.815	1.13	0.507	0.471	0.429	0.295	0.264	0.214	0.21	0.188
NCI-H460	0.301	0.351	0.532	0.352	0.473	0.806	0.675	0.534	0.585	0.312	0.329	0.12	0.166	0.147	0.176	0.117	0.181
NCI-H647		0.379	0.41	0.685	0.478	0.81	0.572	0.375	0.534	0.537	0.512	0.385	0.655	0.467	0.406	0.357	0.561
NCI-H650	0.861	0.939	0.902	0.876	0.958	0.94	0.882	0.941	0.95	0.856	1.01	1.04	0.956	0.325	0.331	0.339	0.322
NCI-H727	0.355	0.304	0.407	0.279	0.229	0.556	0.599	0.598	0.581	0.372	0.397	0.381	0.383	0.692	0.573	0.698	0.585
NCI-H838	0.399	0.388	0.394	0.382	0.476	1.03	0.963	0.971	1.07	0.54	0.458	0.504	0.666	0.245	0.216	0.229	0.229
NCI-H1355	0.399	0.299	0.378	0.475	0.443	0.933	0.72	0.568	0.828	0.462	0.403	0.378	0.426	0.445	0.398	0.322	0.387
NCI-H1395		0.614	0.772	0.645	0.619	0.4	0.411	0.385	0.394	1.24	0.954	0.957	0.94	0.617	0.54	0.54	0.646
NCI-H1437	0.421	0.468	0.38	0.41	0.399	1.2	1.2	1.03	1.26	0.594	0.562	0.505	0.674	0.321	0.307	0.328	0.338
NCI-H1651	0.604	0.657	0.53	0.471	0.439	0.507	0.43	0.361	0.553	0.825	0.784	0.813	0.898	0.515	0.531	0.527	0.522
NCI-H1666	0.328	0.359	0.377	0.474	0.423	0.706	0.897	0.915	0.873	1.03	0.845	0.858	0.912	0.666	0.673	0.634	0.678
NCI-H1734	0.44	0.433	0.408	0.38	0.358	0.72	0.529	0.549	0.664	0.724	0.611	0.655	0.677	0.35	0.332	0.361	0.395
NCI-H1755	0.466	0.404	0.41	0.408	0.393	0.595	0.428	0.735	0.475	0.811	0.795	0.857	0.844	0.483	0.457	0.46	0.469
NCI-H1792		0.238	0.289	0.235	0.307	0.697	0.624		0.797	0.513	0.52		0.557	0.634	0.633	0.524	0.754

Cell Line	relative viability (QS11 + Pictilisib; first compound 0.08 µM)	relative viability (QS11 + Pictilisib; first compound 0.253 µM)	relative viability (QS11 + Pictilisib; first compound 0.8 µM)	relative viability (QS11 + Pictilisib; first compound 2.53 µM)	relative viability (QS11 + Pictilisib; first compound 8 µM)	relative viability (Darinaparsin + AZD7762; first compound 0.08 µM)	relative viability (Darinaparsin + AZD7762; first compound 0.8 µM)	relative viability (Darinaparsin + AZD7762; first compound 2.53 µM)	relative viability (Darinaparsin + AZD7762; first compound 8 µM)	relative viability ([1]; first compound 0.08 µM)	relative viability ([1]; first compound 0.8 µM)	relative viability ([1]; first compound 2.53 µM)	relative viability ([1]; first compound 8 µM)	relative viability ([2]; first compound 0.08 µM)	relative viability ([2]; first compound 0.8 µM)	relative viability ([2]; first compound 2.53 µM)	relative viability ([2]; first compound 8 µM)
NCI-H1793	0.259	0.329	0.356	0.309	0.31	0.581	0.553		0.536	0.427	0.482		0.526	0.359	0.374		0.369
NCI-H1915	0.958	0.932		0.896	0.937	0.768	0.738	0.674	0.729	0.336	0.301	0.288	0.3	0.573	0.52	0.502	0.539
NCI-H1944	0.331	0.346		0.353	0.39	0.469	0.518	0.527	0.427	0.404	0.401	0.371	0.408	0.314	0.339	0.31	0.404
NCI-H1975	0.289	0.234	0.327	0.364	0.478	0.751	0.684	0.662	0.741	0.35	0.382	0.328	0.307	0.693	0.634	0.504	0.606
NCI-H1993	0.843	0.935	0.799	0.875	0.635	0.965	0.723	0.628	0.84	0.661	0.5	0.512	0.589	0.586	0.743	0.59	0.68
NCI-H2085	0.432	0.404	0.456	0.432	0.519	0.91	0.934	0.892	1.17	0.469	0.477	0.586	0.618	0.466	0.482	0.508	0.457
NCI-H2087	0.799	0.836	0.926	1.03	1.13	1.41	1.45	1.39	1.75	0.185	0.176	0.185	0.263	0.225	0.215	0.169	0.204
NCI-H2126	0.489	0.444	0.503	0.501	0.476	1.14	1.03	0.917	1.14	0.629	0.563	0.575	0.542	0.371	0.344	0.352	0.334
NCI-H2170	0.326	0.356	0.327	0.276	0.263	0.946	0.916	0.852	1.11	1.17	0.955	0.926	1.18	0.427	0.425	0.385	0.411
NCI-H2347	0.537	0.715	0.699	0.606	0.666	0.668	0.583	0.734	0.871	0.249	0.266	0.307	0.242	0.43	0.404	0.447	0.4
NCI-H2405	0.393	0.412	0.468	0.756	0.567	1.04	0.666	0.68	0.817	0.702	0.562	0.55	0.668	0.532	0.492	0.473	0.606
NCI-H3122	0.566	0.693	0.467	0.71	0.722	1.14	1	0.937	1.34	0.231	0.208	0.216	0.347	0.19	0.223	0.223	0.201
PC-3 [JPC-3]	0.699	0.652	0.707	0.648	0.601	0.972	0.807	0.668	0.85	0.758	0.737	0.704	0.659	0.553	0.516	0.542	0.547
PC-14	0.658	0.639	0.667	0.569	0.604	0.481	0.361	0.422	0.379	1.08	0.798	0.741	0.923	0.661	0.53	0.365	0.462
RERF-LC-KJ	0.628	0.563	0.506	0.517	0.497	0.92	0.989	0.865	1.19	0.933	0.933	0.93	0.817	1.13	1.11	1.02	1.08

Reference: the supplement of paper PMC10307832
